Experimental data reported in US20180244625A1, “FUNGICIDAL COMPOSITIONS” (Syngenta Participations AG, priority 2015, published 2018).
Read-outs that look alike come from different tables or passages of the source.

Test system: Uncinula necator
Assay: Uncinula necator/Grape (powdery mildew on grape), preventive spray test on grape seedlings
Format: in vivo
Conditions: Erysiphe necator
From the text: A synergistic effect exists whenever the action of an active ingredient combination is greater than the sum of the actions of the individual components. The action to be expected E for a given active ingredient combination obeys the so-called COLBY formula and can be calculated as follows (COLBY, S. R. “Calculating synergistic and antagonistic responses of herbicide combination”, Weeds, Vol. 15, pages 20-22; 1967): ppm=milligrams of active ingredient (=a.i.) per liter of spray mixture X=% action by active ingredient (A) using p ppm of active ingredient Y=% action by active ingredient (B) using q ppm of active ingredient. According to COLBY, the expected (additive) action of active ingredients (A)+(B) using p+q ppm of active ingredient is [formula] If the action actually observed (O) is greater than the expected action (E), then the action of the combination is super-additive, i.e. there is a synergistic effect. In mathematical terms, synergism corresponds to a positive value for the difference of (O-E). In the case of purely complementary addition of activities (expected activity), said difference (O-E) is zero. A negative value of said difference (O-E) signals a loss of activity compared to the expected activity. Uncinula necator/Grape (Powdery Mildew on Grape) Five-week-old grape seedlings cv. Gutedel were treated with the formulated testcompound in a spray chamber. One day after application grape plants were inoculated by shaking plants infected with grape powdery mildew above the test plants. After an incubation period of 7 days at 26° C. and 60% r. h. under a light regime of 14/10 h (light/dark) the disease incidence was assessed.

SMILES	inhibition at 0.1 µg/mL (168 h, Compound 1.001 0.1 mg/l alone, grape seedlings cv. Gutedel, 7 days after inoculation) [%]	inhibition at 10 pg/mL (Compound 1.001 0.00001 mg/l alone, read-out: Compound 1.001 inhibition (%)) [%]	inhibition at 0.0001 µg/mL (Compound 1.001 0.0001 mg/l alone, read-out: Compound 1.001 inhibition (%)) [%]	inhibition at 0.001 µg/mL (Compound 1.001 0.001 mg/l alone, read-out: Compound 1.001 inhibition (%)) [%]	inhibition at 0.01 µg/mL (Compound 1.001 0.01 mg/l alone, read-out: Compound 1.001 inhibition (%)) [%]	inhibition at 1 pg/mL (Flutianil 0.000001 mg/l alone) [%]	inhibition at 10 pg/mL (Flutianil 0.00001 mg/l alone, read-out: Flutianil Inhibition (%)) [%]	inhibition at 0.0001 µg/mL (Flutianil 0.0001 mg/l alone, read-out: Flutianil Inhibition (%)) [%]	inhibition at 0.001 µg/mL (Flutianil 0.001 mg/l alone, read-out: Flutianil Inhibition (%)) [%]	inhibition at 0.01 µg/mL (Flutianil 0.01 mg/l alone, read-out: Flutianil Inhibition (%)) [%]
CON(C(=O)c1cn(C)nc1C(F)F)C(C)Cc1c(Cl)cc(Cl)cc1Cl (stereo not shown) [Compound 1.001, 3-(difluoromethyl)-N-methoxy-1-methyl-N-[1-methyl-2-(2,4,6-trichlorophenyl)ethyl]pyrazole-4-carboxamide]	90.4	0	0	1.7	12.9					
COc1ccccc1N1CCS/C1=C(/C#N)Sc1cc(C(F)(F)F)ccc1F [Flutianil, (2Z)-{[2-fluoro-5-(trifluoromethyl)phenyl]sulfanyl}[3-(2-methoxyphenyl)-1,3-thiazolidin-2-ylidene]acetonitrile]						0	1.3	1	26.8	100
